Where two headings read alike, the source gives them in different places.

Consider five molecules from patent US11388924B2 (priority 2018, dated 2022).

For data set [1] the following is noted: 25° C., cited from earlier work.
For data set [2] the following is noted: pH 7.4; cited from earlier work.
For data set [3] the following is noted: 20° C.; cited from earlier work.
The text on data set [4]: The neutralization reaction in vegetable glycerin is less favorable in view of the reduced solubility of CO2 (Nunes et al., 2013—Solubility of CO2 in glycerol at high pressures. J. of Fluid Phase Equilibria; 358: 105-107).
In an embodiment of the present disclosure, the experimental setup described by Bihong, et al., 2015 (Mechanisms of CO2 Capture into Monoethanolamine Solution with Different CO2 Loading during the Absorption/Desorption Processes. J. of Environmental Science technology; 49 (17): 10728-10735) was implemented. […] In a further embodiment of the present disclosure, the neutralization with CO2 was performed at pressures ranging from about 0.1 MPa to about 2.7 MPa.
The organic acid is typically selected based on volatility under vaping conditions, tastelessness, low toxicity or nontoxicity to human health, ease of manipulation, ability to form liquid salts and […] an unpleasant sensation such as shortness of breath. In a further embodiment of the present disclosure, the organic acid is glycolic acid.

For data set [5] the following is noted: after absorption through the lung; cited from earlier work.
The conditions of data set [6]: pig's nasal mucosa; cited from earlier work.

From the text for subjects: This sensation ranges from a smooth satisfying catch as the vapor travels down the throat to an intolerable harshness.

Consider `O=C=O` [CO2], for which the “number moles of CO2 dissolved” value in data set [1] (acetone, 0.52 MPa) is given as 0.0876; in data set [1] (ethanol, 0.41 MPa), 0.0349; in data set [1] (propylene glycol, 0.38 MPa), 0.0100.
On to `O=C(O)CC(O)(CC(=O)O)C(=O)O` [citric acid], for which the “sensation produced by the acid used in the formulation” value (from here on “sensation produced by the acid used”) in the data set on subjects (in vivo) was “unpleasant feeling”.
On to `CC(O)C(=O)O` (stereo not shown) [lactic acid], for which the “sensation produced by the acid used” value in the data set with subjects (in vivo) is reported as “unpleasant feeling”.
Regarding `O=C(O)CC(O)C(=O)O` (stereo not shown) [malic acid], the “sensation produced by the acid used” value in the data set with subjects (acid in nicotine formulations) was “unpleasant feeling”.
For `CN1CCCC1c1cccnc1` (stereo not shown) [nicotine], in data set [2], the nicotine ionized is listed as around 69% and the nicotine unionized is 31%. The pKa in data set [3] is reported as 6.15. In addition, the “pH reached by neutralization with CO2” value in data set [4] (about 25° C., about 0.41 MPa) is given as at most 7.5. The “final pH after neutralization with CO2” value in data set [4] (in water) came out at 6.8. Also, the “initial pH” value in data set [4] (pure nicotine in propylene glycol, before neutralization) is listed as “above 9.5”. In the data set with subjects (in vivo), the “burning sensation in the throat” value is recorded as “diminishes or disappears” and the “feeling of shortness of breath” value is listed as “waned or disappeared”. Besides, the “estimated time to reach the brain” value in data set [5] was 10 to 20 s. In data set [6], the “permeation of the protonated form versus the unionized form” value was “higher than that for the unionized form”.

As usually defined, the pKa is the negative logarithm of the acid dissociation constant.
